System: KCNQ channels
Test: Thallium flux assay for KCNQ channel openers
Type: cell-based
Conditions: HEK-293 cells stably transfected with a KCNQ family member; for Min. conc. response: minimal active concentration: lowest concentration giving signal amplitude >= four standard deviations of negative controls; for EC50: thallium flux, 10 point concentration series
Procedure: Thallium Flux Assay for KCNQ channel Openers. The thallium assay is a modification of that published by Weaver and is referenced in its entirety (Weaver, C. D. WO 02/31508, 2002).
Approximately 20,000 cells/well of an HEK-293 cell line stably transfected with one of the members of the KCNQ family were plated into clear-bottom, black-walled, poly-D-lysine coated, 384 well assay plates in 20 μl/well of low chloride plating medium. Low chloride plating medium was composed of the following: sodium gluconate, 109 mM; potassium gluconate, 5.4 mM; hemi-calcium gluconate, 3.6 mM; magnesium sulfate, 0.8 mM; sodium bicarbonate, 26.2 mM; sodium phosphate monobasic, 1.2 mM; glutamine, 2 mM; glucose, 5 mM; 4-(2-hydroxyethyl)-1-piperazineethanesulfonic acid (HEPES) (pH 7.3) 10 mM, MEM vitamin solution (10× concentration of vitamins, Gibco/LifeTechnologies 11120-052) and MEM amino acid solution (1× concentration of amino acids, Gibco/LifeTechnologies 11130-051).
Following overnight incubation in a 5% CO2 incubator at 37° C., the cells in the plates were loaded with 20 μl/well of a dye loading solution containing the commercially available thallium-sensitive fluorescent dye BTC-AM, the acetomethoxy ester of BTC (see U.S. Pat. No. 5,501,980) (2 μM) and pluronic acid F-127 (Molecular Probes P 6867) (0.02% w/v) in chloride free assay buffer. Chloride free assay buffer was composed of the following: sodium gluconate, 140 mM; potassium gluconate, 2.5 mM; hemi-calcium gluconate, 6 mM; hemi-magnesium gluconate, 2 mM; glucose, 5 mM; HEPES (pH 7.3), 10 mM.
Following incubation in the dye loading solution for from 45-90 min at room temperature, the dye loading solution was removed by aspiration and replaced with 40 μl/well of chloride free assay buffer.
Prior to addition to cell plates, test compound and standard compounds were dissolved in DMSO to 3 mM concentration. Compounds were then diluted from the 3 mM stock to 100-fold over the final assay concentration in DMSO. Finally, compounds in DMSO were diluted from 100-fold over the final assay concentration to 5-fold over the final assay concentration in chloride free assay buffer.
Ten μl/well of compounds at 5-fold over the final assay concentration were then added to the cell plates. This represents a 1:5 dilution, yielding the final test concentration. The wells used for test compounds were A1-P20. Wells A21-P22 contained a standard opener and a maximally efficacious concentration (positive control). Wells A23-P24 contained chloride free assay buffer containing 1% DMSO (negative control).
Following addition of test compounds, the plates were loaded onto the Molecular Devices FLIPR. The 488 nm line of the argon laser was used to excite the BTC and the emission filter was a 540(+/−30) nm. Images were collected at 1 Hz. Ten seconds of baseline were collected and then the FLIPR was used to add 13 μl/well of a stimulus buffer composed of 7.5 mM Tl2SO4 in chloride free assay buffer. Images were collected for an additional 60 seconds.
For data analysis, the amplitude of the average of the negative controls was subtracted from all wells. The amplitudes of the test compounds were then compared to the value of four standard deviations of the negative control wells. The lowest concentration of a test compound sufficient to generate a signal amplitude greater than or equal to four standard deviations from the amplitude of the negative controls was defined as the minimal active concentration.
For generating EC50 values, compounds were serially diluted in 1:3 volume increments to produce a 10 point concentration series. EC50 values were calculated by fitting the resulting amplitudes to a single-site logistic equation. EC50 was defined as the concentration of test compound required to yield 50% of the maximal response. Maximal response (Maximal opening) was the largest signal amplitude divided by the negative control amplitude generated by any concentration of a test compound. […]

Structure (SMILES) | Min. conc. response | EC50
CCN(Cc1ccncc1)Cc1ccccc1-c1nc(C(F)(F)F)c(C(=O)NCc2cccc(OC(F)(F)F)c2)s1 [Example 59] | 3 µM | 50 to 1000 nM
COc1ccccc1-c1nc(C(F)(F)F)c(C(=O)NC(C)c2cccc(Br)c2)s1 (stereo not drawn) [Example 96] | 3 µM | 
CCN(CC)CCOc1ccccc1-c1nc(C(F)(F)F)c(C(=O)N[C@@H](C)c2cccc(OC)c2)s1 [Example 101] | 3 µM | 
CC(NC(=O)c1sc(-c2ccccc2F)nc1C(F)(F)F)c1cccc(CN2CCOCC2)c1 (stereo not drawn) [Example 37, 2-(2-fluorophenyl)-4-(trifluoromethyl)-N-[1-[3-[(4-morpholinyl)methyl]phenyl]ethyl]-5-thiazolecarboxamide] | 3 µM | 1000 to 20000 nM
CCN(CC)Cc1cccnc1-c1nc(C(F)(F)F)c(C(=O)NC(C)c2cccc(OC(F)(F)F)c2)s1 (stereo not drawn) [Example 61, 2-[3-(diethylaminomethyl)pyridin-2-yl]-4-(trifluoromethyl)-N-[1-[3-(trifluoromethoxy)phenyl]ethyl]-5-thiazolecarboxamide] | 30 µM | 50 to 1000 nM
O=C(NCc1cccc(OC(F)(F)F)c1)c1sc(-c2ccccc2CN2CCOCC2)nc1C(F)(F)F [Example 109] | 3 µM | 
COc1ccc(F)cc1-c1nc(C(F)(F)F)c(C(=O)NCc2cccc(OC(F)(F)F)c2)s1 [Example 46, 2-(5-fluoro-2-methoxyphenyl)-4-(trifluoromethyl)-N-[(3-trifluoromethoxyphenyl)methyl]-5-thiazolecarboxamide] | 10 µM | 1000 to 20000 nM
CC(NC(=O)c1sc(-c2ccccc2Cl)nc1C(F)(F)F)c1cccc(N(C)C)c1 (stereo not drawn) [Example 50, 2-(2-chlorophenyl)-4-(trifluoromethyl)-N-[1-[3-(dimethylamino)phenyl]ethyl]-5-thiazolecarboxamide] | 0.3 µM | 50 to 1000 nM
COc1ccccc1-c1nc(C(F)(F)F)c(C(=O)NC(C)c2cccc(N(C)C)c2)s1 (stereo not drawn) [Example 25, 2-(2-methoxyphenyl)-4-(trifluoromethyl)-N-[1-[3-(dimethylamino)phenyl]ethyl]-5-thiazolecarboxamide] | 3 µM | 1000 to 20000 nM
COc1ccccc1-c1nc(C(F)(F)F)c(C(=O)N[C@@H](C)c2cccc(N3CCOCC3)c2)s1 [Example 23, 2-(2-methoxyphenyl)-4-(trifluoromethyl)-N-[1-[3-(1-morpholinyl)phenyl]ethyl]-5-thiazolecarboxamide] | 3 µM | 50 to 1000 nM
CCN(Cc1ccncc1)Cc1ccccc1-c1nc(C(F)(F)F)c(C(=O)NC(C)c2cccc(OC(F)(F)F)c2)s1 (stereo not drawn) [Example 113] | 0.3 µM | 
CC(NC(=O)c1sc(-c2ccccc2CN2CCOCC2)nc1C(F)(F)F)c1cccc(OC(F)(F)F)c1 (stereo not drawn) [Example 108] | 0.3 µM | 
COc1cccc([C@H](C)NC(=O)c2sc(-c3ccccc3CN3CCN(C)CC3)nc2C(F)(F)F)c1 [Example 112] | 30 µM | 
COc1cccc(CNC(=O)c2sc(-c3cc(F)ccc3OC)nc2C(F)(F)F)c1 [Example 45, 2-(5-fluoro-2-methoxyphenyl)-4-(trifluoromethyl)-N-[(3-methoxyphenyl)methyl]-5-thiazolecarboxamide] | 3 µM | 1000 to 20000 nM
CCN(CC)Cc1ccccc1-c1nc(C(F)(F)F)c(C(=O)NCc2cccc(F)c2)s1 [Example 79] | 3 µM | 50 to 1000 nM
CC(NC(=O)c1sc(-c2cccc(N3CCOCC3)c2)nc1C(F)(F)F)c1cccc(OC(F)(F)F)c1 (stereo not drawn) [Example 97] | 10 µM | 

Structure (SMILES) | Min. conc. response | EC50
COc1ccccc1-c1nc(C(F)(F)F)c(C(=O)NC(C)c2cccc(N(C)Cc3ccco3)c2)s1 (stereo not drawn) [Example 34, 2-(2-methoxyphenyl)-4-(trifluoromethyl)-N-[1-[3-[(2-furanylmethyl)methylamino]phenyl]ethyl]-5-thiazolecarboxamide] | 0.3 µM | < 50 nM
CCN(Cc1ccncc1)Cc1ccccc1-c1nc(C(F)(F)F)c(C(=O)N[C@@H](C)c2cccc(OC)c2)s1 [Example 60] | 0.3 µM | 50 to 1000 nM
C[C@H](NC(=O)c1sc(-c2ncccc2CN2CCOCC2)nc1C(F)(F)F)c1cccc(-c2cccnc2)c1 [Example 67, (S)-2-[3-(4-morpholinylmethyl)pyridin-2-yl]-4-(trifluoromethyl)-N-[1-[3-(3-pyridinyl)phenyl]ethyl]-5-thiazolecarboxamide] | 30 µM | 50 to 1000 nM
COc1cccc([C@H](C)NC(=O)c2sc(-c3cc(F)ccc3OC)nc2C(F)(F)F)c1 [Example 48, (S)-2-(5-fluoro-2-methoxyphenyl)-4-(trifluoromethyl)-N-[1-[3-(methoxy)phenyl]ethyl]-5-thiazolecarboxamide] | 3 µM | 50 to 1000 nM
COc1ccc(F)cc1-c1nc(C(F)(F)F)c(C(=O)NC(C)c2cccc(C(F)(F)F)c2)s1 (stereo not drawn) [Example 43, 2-(5-fluoro-2-methoxyphenyl)-4-(trifluoromethyl)-N-[1-[3-(trifluoromethyl)phenyl]ethyl]-5-thiazolecarboxamide] | 3 µM | 50 to 1000 nM
COc1cccc(-c2nc(C(F)(F)F)c(C(=O)NCc3ccccn3)s2)c1 [Example 88] | 30 µM | 
COc1cccc(-c2nc(C(F)(F)F)c(C(=O)NC(C)c3ccc4c(c3)CCO4)s2)c1 (stereo not drawn) [Example 86] | 3 µM | 
COc1ccccc1-c1nc(C(F)(F)F)c(C(=O)NC(C)c2cccc(NC(=N)N)c2)s1 (stereo not drawn) [Example 40, 2-(2-methoxyphenyl)-4-(trifluoromethyl)-N-[1-[3-(guanidinyl)phenyl]ethyl]-5-thiazolecarboxamide] | 30 µM | 1000 to 20000 nM
COc1ccccc1-c1nc(C(F)(F)F)c(C(=O)NCc2ccccn2)s1 [Example 84] | 30 µM | 
CC(NC(=O)c1sc(-c2ccccc2F)nc1C(F)(F)F)c1cccc(N(C)C)c1 (stereo not drawn) [Example 26, 2-(2-fluorophenyl)-4-(trifluoromethyl)-N-[1-[3-(dimethylamino)phenyl]ethyl]-5-thiazolecarboxamide] | 3 µM | 50 to 1000 nM
COc1ccccc1-c1nc(C(F)(F)F)c(C(=O)NCc2cccc(F)c2)s1 [Example 27, 2-(2-methoxyphenyl)-4-(trifluoromethyl)-N-(3-fluorophenyl)methyl-5-thiazolecarboxamide] | 3 µM | 1000 to 20000 nM
CC(NC(=O)c1sc(-c2ccc3c(c2)OCO3)nc1C(F)(F)F)c1cccc(OC(F)(F)F)c1 (stereo not drawn) [Example 20, 2-(3,4-dioxolanylphenyl)-4-(trifluoromethyl)-N-[1-[3-(trifluoromethoxy)phenyl]ethyl]-5-thiazolecarboxamide] | 0.3 µM | 1000 to 20000 nM
CC(NC(=O)c1sc(-c2ccccc2N2CCOCC2)nc1C(F)(F)F)c1cccc(C(F)(F)F)c1 (stereo not drawn) [Example 56, 2-[2-(4-morpholinyl)phenyl]-4-(trifluoromethyl)-N-[1-[3-(trifluoromethyl)phenyl]ethyl]-5-thiazolecarboxamide] | 0.3 µM | 50 to 1000 nM
O=C(NCc1cccc(F)c1)c1sc(-c2cccc(F)c2)nc1C(F)(F)F [Example 93] | 10 µM | 
COc1ccccc1-c1nc(C(F)(F)F)c(C(=O)NC(C)c2cccc(N3CCCC3)c2)s1 (stereo not drawn) [Example 33, 2-(2-methoxyphenyl)-4-(trifluoromethyl)-N-[1-[3-(1-pyrrolidinyl)phenyl]ethyl]-5-thiazolecarboxamide] | 3 µM | 50 to 1000 nM
